# Test results reported in ChEMBL document CHEMBL4196008, “Structure activity relationships, multidrug resistance reversal and selectivity of heteroarylphenyl ABCG2 inhibitors” (Eur J Med Chem, 2018).
# Legend:
# [1] = molecular target: T1, Broad substrate specificity ATP-binding cassette transporter ABCG2 (Homo sapiens, UniProt Q9UNQ0); assay: Inhibition of C-terminal GFP-fused human ABCG2 expressed in MDCK2 cells up to 10 uM preincubated for 30 mins followed by Hoechst 33342 addition and measured every 60 secs for 120 mins by Hoechst 33342 accumulation assay; format: cell-based; conditions: 2 h
# T1 sequence (Q9UNQ0 whole entry): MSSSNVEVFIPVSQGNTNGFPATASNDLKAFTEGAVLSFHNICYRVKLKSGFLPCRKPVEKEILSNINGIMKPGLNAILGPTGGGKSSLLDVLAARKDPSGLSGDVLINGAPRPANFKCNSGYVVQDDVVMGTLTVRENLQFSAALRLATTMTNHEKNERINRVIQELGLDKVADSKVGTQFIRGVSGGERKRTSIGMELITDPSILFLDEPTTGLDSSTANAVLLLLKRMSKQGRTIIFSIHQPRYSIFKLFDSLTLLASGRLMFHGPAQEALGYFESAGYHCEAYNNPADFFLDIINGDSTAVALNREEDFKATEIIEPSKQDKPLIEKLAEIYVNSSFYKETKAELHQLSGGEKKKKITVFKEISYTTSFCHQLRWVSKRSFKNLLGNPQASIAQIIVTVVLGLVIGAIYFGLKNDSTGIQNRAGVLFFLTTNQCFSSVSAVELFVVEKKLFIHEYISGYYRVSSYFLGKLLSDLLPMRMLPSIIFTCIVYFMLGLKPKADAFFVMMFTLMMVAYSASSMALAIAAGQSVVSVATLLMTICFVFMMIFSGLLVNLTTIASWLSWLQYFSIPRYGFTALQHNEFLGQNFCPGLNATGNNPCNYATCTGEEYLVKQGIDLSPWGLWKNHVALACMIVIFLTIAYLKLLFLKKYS
# [2] = Resistance factor, ratio of SN-38 GI50 for MDCK2 cells expressing C-terminal GFP-fused human ABCG2 in presence of 0.100 uM test compound to SN-38 GI50 for MDCK2 cells in absence of test compound; format: functional
# [3] = Growth inhibition of MDCK2 cells after 72 hrs by MTT assay; format: cell-based, Canis lupus familiaris, MDCK-II; conditions: dog
# [4] = Resistance factor, ratio of SN-38 GI50 for MDCK2 cells expressing C-terminal GFP-fused human ABCG2 in presence of 0.316 uM test compound to SN-38 GI50 for MDCK2 cells in absence of test compound; format: functional
# [5] = molecular target: T2, ABCG2 (Homo sapiens, UniProt Q9UNQ0); assay: Inhibition of C-terminal GFP-fused human ABCG2 expressed in MDCK2 cells up to 10 uM preincubated for 30 mins followed by Hoechst 33342 addition and measured every 60 secs for 120 mins by Hoechst 33342 accumulation assay relative to XR9577; format: cell-based; conditions: MDCK2 cells expressing C-terminal GFP-fused human ABCG2, probe Hoechst 33342, read-out: Imax
# T2 sequence (Q9UNQ0 whole entry): T1 sequence (Q9UNQ0 whole entry)
# [6] = Resistance factor, ratio of SN-38 GI50 for MDCK2 cells expressing C-terminal GFP-fused human ABCG2 in presence of 0.0100 uM test compound to SN-38 GI50 for MDCK2 cells in absence of test compound; format: functional
# [7] = molecular target: T1, Broad substrate specificity ATP-binding cassette transporter ABCG2
# Description: Inhibition of C-terminal GFP-fused human ABCG2 expressed in MDCK2 cells preincubated for 30 mins followed by Hoechst 33342 addition and measured every 60 secs for 120 mins by Hoechst 33342 accumulation assay
# [8] = Resistance factor, ratio of SN-38 GI50 for MDCK2 cells expressing C-terminal GFP-fused human ABCG2 in presence of 0.0316 uM test compound to SN-38 GI50 for MDCK2 cells in absence of test compound; format: functional
# [9] = Growth inhibition of MDCK2 cells expressing C-terminal GFP-fused human ABCG2 after 72 hrs by MTT assay; format: ADME, cell-based, Canis lupus familiaris, MDCK-II; conditions: dog
# [10] = test system: ABCG2; assay: Therapeutic index, ratio of GI50 for MDCK2 cells expressing C-terminal GFP-fused human ABCG2 to IC50 for C-terminal GFP-fused human ABCG2 expressed in MDCK2 BCRP cells; format: toxicity, cell-based; conditions: dog, read-out: TI
# [11] = molecular target: ATP-dependent translocase ABCB1 (Homo sapiens, UniProt P08183); assay: Inhibition of ABCB1 in human A2780adr cells assessed as reduction in calcein AM levels preincubated for 30 mins followed by calcein AM addition measured immediately at 60 sec time interval for 60 mins by fluorescence assay; format: cell-based
# ATP-dependent translocase ABCB1, sequence (P08183 whole entry, the tested form may be a part): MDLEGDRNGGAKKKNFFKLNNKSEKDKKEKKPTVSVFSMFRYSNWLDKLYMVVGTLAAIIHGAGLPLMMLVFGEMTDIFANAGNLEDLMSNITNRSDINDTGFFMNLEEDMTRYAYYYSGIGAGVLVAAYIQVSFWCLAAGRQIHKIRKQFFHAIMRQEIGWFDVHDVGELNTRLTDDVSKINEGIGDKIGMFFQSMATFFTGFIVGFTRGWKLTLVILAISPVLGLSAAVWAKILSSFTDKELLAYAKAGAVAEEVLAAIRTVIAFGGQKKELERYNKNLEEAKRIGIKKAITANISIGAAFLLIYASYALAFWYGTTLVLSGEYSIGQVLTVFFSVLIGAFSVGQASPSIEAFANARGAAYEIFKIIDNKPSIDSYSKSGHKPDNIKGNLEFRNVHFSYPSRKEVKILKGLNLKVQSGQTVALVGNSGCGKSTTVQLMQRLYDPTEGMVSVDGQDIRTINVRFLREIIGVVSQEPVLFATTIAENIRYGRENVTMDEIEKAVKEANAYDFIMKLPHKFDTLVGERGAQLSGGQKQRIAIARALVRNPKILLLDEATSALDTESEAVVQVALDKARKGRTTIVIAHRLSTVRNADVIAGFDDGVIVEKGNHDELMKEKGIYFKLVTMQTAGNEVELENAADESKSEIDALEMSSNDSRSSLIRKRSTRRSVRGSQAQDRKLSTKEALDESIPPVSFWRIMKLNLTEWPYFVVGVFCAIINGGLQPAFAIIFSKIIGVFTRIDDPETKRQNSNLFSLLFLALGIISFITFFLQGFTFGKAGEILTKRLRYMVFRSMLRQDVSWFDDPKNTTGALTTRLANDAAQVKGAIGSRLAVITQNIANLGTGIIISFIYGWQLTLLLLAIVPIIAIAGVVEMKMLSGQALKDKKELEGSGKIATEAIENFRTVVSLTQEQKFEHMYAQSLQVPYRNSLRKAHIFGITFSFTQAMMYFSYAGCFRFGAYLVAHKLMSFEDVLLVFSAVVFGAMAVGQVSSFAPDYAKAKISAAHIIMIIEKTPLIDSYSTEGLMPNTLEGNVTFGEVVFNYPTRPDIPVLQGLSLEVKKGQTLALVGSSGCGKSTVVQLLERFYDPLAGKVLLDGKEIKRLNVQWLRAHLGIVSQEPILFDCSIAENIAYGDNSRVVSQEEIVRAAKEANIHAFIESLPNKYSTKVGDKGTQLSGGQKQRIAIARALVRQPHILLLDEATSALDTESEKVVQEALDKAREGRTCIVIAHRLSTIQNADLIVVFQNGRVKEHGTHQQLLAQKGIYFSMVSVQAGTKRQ
# [12] = Resistance factor, ratio of SN-38 GI50 for MDCK2 cells expressing C-terminal GFP-fused human ABCG2 in presence of 1 uM test compound to SN-38 GI50 for MDCK2 cells in absence of test compound; format: functional
# [13] = molecular target: ABCB1 (Homo sapiens, UniProt P08183); assay: Inhibition of ABCB1 in human A2780adr cells assessed as reduction in calcein AM levels at 10 uM preincubated for 30 mins followed by calcein AM addition measured immediately at 60 sec time interval for 60 mins by fluorescence assay relative to control; format: cell-based; conditions: probe calcein AM
# ABCB1, sequence (P08183 whole entry): as the sequence (P08183 whole entry, the tested form may be a part) above
Compound,Emax at 2 h [5],IC50 [7],further results
COc1ccc(C(=O)Nc2ccccc2-c2nn[nH]n2)cc1,–,–,inhibition (INH) [1]: Not Active
COc1ccc(-n2nnc(-c3ccccc3NC(=O)c3ccc(C(F)(F)F)cc3)n2)cc1,–,–,inhibition (INH) [1]: Not Active
COc1ccc(C(=O)Nc2ccccc2-c2nnn(-c3ccc(OC)cc3)n2)cc1,–,–,inhibition (INH) [1]: Not Active
O=C(Nc1ccccc1-n1cc(-c2ccccc2)nn1)c1ccccc1,100%,15300 nM,RatioGI50 [2]: 3.59; GI50 at 72 h [3]: 452000 nM; RatioGI50 [4]: 2.38; IC50 [11]: 21200 nM; RatioGI50 [8]: 5.37; GI50 at 72 h [9]: 506000 nM; selectivity ratio [10]: 33.1; RatioGI50 [12]: 1.63
COc1ccc(C(=O)Nc2ccccc2-n2cc(-c3ccc(OC)cc3)nn2)cc1,100%,2360 nM,–
COc1ccc(-n2nnc(-c3ccc(NC(=O)c4ccc(C(F)(F)F)cc4)cc3)n2)cc1,100%,39800 nM,–
COc1ccc(-n2nnc(-c3ccccc3NC(=O)C3CCCCC3)n2)cc1,95%,565 nM,–
c1ccc(-c2ccccc2-c2nnn(-c3ccccc3)n2)cc1,100%,8340 nM,–
O=C(Nc1ccccc1-c1nnn(-c2ccccc2)n1)C12CC3CC(CC(C3)C1)C2,99%,1060 nM,"inhibition at 1 h, 10 µM [13]: 51%; IC50 [11]: 11000 nM"
O=C(Nc1ccccc1-c1nn[nH]n1)c1ccccc1,–,–,inhibition (INH) [1]: Not Active
CC(=O)Nc1ccccc1-c1nnn(-c2ccccc2)n1,100%,6910 nM,–
O=C(Nc1ccccc1-c1nnn(-c2ccccc2)n1)c1ccccn1,99%,733 nM,IC50 [11]: 5910 nM
COc1ccc(-c2cn(-c3ccccc3NC(=O)c3ccc(C(F)(F)F)cc3)nn2)cc1,118%,766 nM,–
O=C(Nc1ccccc1-c1nnn(-c2ccccc2)n1)c1cccnc1,81%,445 nM,–
COc1ccc(-n2nnc(-c3ccccc3NS(=O)(=O)c3ccc(OC)cc3)n2)cc1,100%,7670 nM,–
O=C(Nc1ccccc1-c1nnn(-c2ccccc2)n1)c1cccc2ccccc12,85%,430 nM,–
O=C(Nc1ccccc1-c1nnn(-c2ccccc2)n1)C1CCCCC1,97%,287 nM,–
COc1ccc(-n2nnc(-c3cccc(NC(=O)c4ccc(C(F)(F)F)cc4)c3)n2)cc1,100%,18500 nM,–
COc1ccc(-n2nnc(-c3ccccc3NC(=O)c3cccs3)n2)cc1,90%,351 nM,–
COc1ccc(C(=O)Nc2ccccc2-c2nnc(-c3ccc(OC)cc3)o2)cc1,124%,438 nM,RatioGI50 [2]: 2.17; GI50 at 72 h [3]: 487000 nM; RatioGI50 [4]: 1.29; RatioGI50 [6]: 6.61; RatioGI50 [8]: 5.07; GI50 at 72 h [9]: 404000 nM; selectivity ratio [10]: 836
COc1ccc(-n2nnc(-c3ccccc3NC(C)=O)n2)cc1,100%,3230 nM,–
COc1ccc(-n2nnc(-c3ccccc3-n3nnc(-c4ccc(C(F)(F)F)cc4)n3)n2)cc1,100%,15800 nM,–

# Further lines, with some results ahead:
Emax at 2 h [5],IC50 [7],Compound,further results
101%,112 nM,O=C(Nc1ccccc1-c1nnc(-c2ccccc2)o1)c1ccccc1,RatioGI50 [2]: 1.52; GI50 at 72 h [3]: 60800 nM; RatioGI50 [4]: 1.49; RatioGI50 [6]: 5.51; RatioGI50 [8]: 2.61; GI50 at 72 h [9]: 73700 nM; selectivity ratio [10]: 658
78%,267 nM,COc1ccc(-n2nnc(-c3ccccc3NC(=O)c3cccc4ccccc34)n2)cc1,–
103%,61.6 nM,COc1ccc(C(=O)Nc2ccccc2-c2nnn(-c3ccc(OC)nc3)n2)cc1,RatioGI50 [2]: 1.1; GI50 at 72 h [3]: 80100 nM; RatioGI50 [4]: 1.04; IC50 [11]: 8550 nM; RatioGI50 [6]: 4.49; RatioGI50 [8]: 2.64; GI50 at 72 h [9]: 78000 nM; selectivity ratio [10]: 1270
82%,228 nM,COc1ccc(-n2nnc(-c3ccccc3NC(=O)c3cnc4ccccc4c3)n2)cc1,–
123%,259 nM,O=C(Nc1ccccc1-c1nnn(-c2ccccc2)n1)c1ccc2c(c1)OCO2,–
106%,190 nM,O=C(Nc1ccccc1-c1nnn(-c2ccccc2)n1)c1ccc2c(c1)OCCO2,–
50%,129 nM,COc1ccc(-n2nnc(-c3cc(OC)ccc3NC(=O)c3ccc([N+](=O)[O-])cc3)n2)cc1,–
96%,77.4 nM,COc1ccc(-n2nnc(-c3cc(OC)ccc3NC(=O)c3ccc(C(F)(F)F)cc3)n2)cc1,–
120%,102 nM,COc1ccc(-n2nnc(-c3ccccc3NC(=O)c3ccccc3)n2)cn1,–
97%,287 nM,O=C(Nc1ccccc1-c1nnn(-c2ccccc2)n1)c1ccncc1,–
51%,176 nM,O=C(Nc1ccccc1-c1nnn(-c2ccccc2)n1)c1cnc2ccccc2c1,–
47%,90 nM,COc1ccc(-c2nnc(-c3ccccc3NC(=O)c3ccc(C(F)(F)F)cc3)o2)cc1,–
106%,270 nM,O=C(Nc1ccccc1-c1nnn(-c2ccccc2)n1)c1cccs1,–
95%,130 nM,COc1ccc(-n2nnc(-c3ccccc3NC(=O)c3ccc(C(F)(F)F)cc3)n2)cn1,–
